The test concerns the target T1, mouse sweet receptor (mT1R2/mT1R3) (Mus musculus, UniProt Q925D8).
T1 construct: expressed in transfected cells
T1 sequence (Q925D8 21-858): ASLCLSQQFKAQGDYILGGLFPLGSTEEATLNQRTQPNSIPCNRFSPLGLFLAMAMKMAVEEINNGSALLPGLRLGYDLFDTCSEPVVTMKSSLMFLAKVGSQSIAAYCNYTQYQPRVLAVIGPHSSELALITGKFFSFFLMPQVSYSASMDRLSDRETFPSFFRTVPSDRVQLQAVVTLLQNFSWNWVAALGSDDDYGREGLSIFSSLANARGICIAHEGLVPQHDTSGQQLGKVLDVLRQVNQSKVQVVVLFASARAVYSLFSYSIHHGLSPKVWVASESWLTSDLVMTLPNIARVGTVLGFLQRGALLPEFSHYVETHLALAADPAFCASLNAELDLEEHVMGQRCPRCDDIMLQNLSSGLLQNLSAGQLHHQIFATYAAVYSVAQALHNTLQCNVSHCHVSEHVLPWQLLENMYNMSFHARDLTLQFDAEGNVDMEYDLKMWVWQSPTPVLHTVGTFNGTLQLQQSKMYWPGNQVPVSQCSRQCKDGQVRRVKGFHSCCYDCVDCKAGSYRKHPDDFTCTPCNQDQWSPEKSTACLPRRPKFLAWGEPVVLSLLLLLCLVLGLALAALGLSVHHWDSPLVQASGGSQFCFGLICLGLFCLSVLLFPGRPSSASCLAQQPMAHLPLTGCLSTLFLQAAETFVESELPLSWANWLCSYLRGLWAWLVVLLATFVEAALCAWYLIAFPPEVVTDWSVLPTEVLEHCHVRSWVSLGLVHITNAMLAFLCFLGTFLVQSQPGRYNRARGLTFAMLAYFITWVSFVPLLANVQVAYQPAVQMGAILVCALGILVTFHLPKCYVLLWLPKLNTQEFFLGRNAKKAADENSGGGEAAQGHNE
T1 sequence (Q925I4 20-843 partner): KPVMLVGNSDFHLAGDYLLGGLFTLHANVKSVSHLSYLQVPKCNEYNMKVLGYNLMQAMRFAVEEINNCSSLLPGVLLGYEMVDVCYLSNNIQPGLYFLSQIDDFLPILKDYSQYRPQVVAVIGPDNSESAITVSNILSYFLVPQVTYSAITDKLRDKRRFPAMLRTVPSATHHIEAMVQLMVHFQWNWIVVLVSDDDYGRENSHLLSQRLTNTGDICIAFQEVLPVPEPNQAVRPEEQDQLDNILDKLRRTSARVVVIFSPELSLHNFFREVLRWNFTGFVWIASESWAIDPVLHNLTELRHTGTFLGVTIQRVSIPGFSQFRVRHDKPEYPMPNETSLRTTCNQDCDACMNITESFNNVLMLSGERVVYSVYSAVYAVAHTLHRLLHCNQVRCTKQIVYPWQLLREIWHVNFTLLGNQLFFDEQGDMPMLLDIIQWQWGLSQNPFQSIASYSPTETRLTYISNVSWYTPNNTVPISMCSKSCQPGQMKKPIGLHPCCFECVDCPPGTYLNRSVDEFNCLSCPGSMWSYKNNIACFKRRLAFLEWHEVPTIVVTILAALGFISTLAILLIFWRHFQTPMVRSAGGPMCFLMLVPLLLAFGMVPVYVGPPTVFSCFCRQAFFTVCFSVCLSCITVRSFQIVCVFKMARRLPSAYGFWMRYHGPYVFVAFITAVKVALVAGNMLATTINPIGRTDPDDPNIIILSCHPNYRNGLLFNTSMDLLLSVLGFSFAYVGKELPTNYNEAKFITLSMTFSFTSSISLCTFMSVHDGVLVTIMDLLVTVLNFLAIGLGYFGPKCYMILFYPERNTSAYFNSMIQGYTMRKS
Put plainly: sweet receptor inhibition assay, mouse receptor. It counts as cell-based. The text has this: The human T1R3 transmembrane domain determines sensitivity to lactisole, phenoxy herbicides, and fibrates. Inhibition of the receptor's response to sucralose occurred only in the presence of the transmembrane domain of human T1R3. […] Chimeric receptors of T1R3 contained the extracellular portion of human or mouse receptor and the transmembrane domain and C-terminal domain from mouse or human receptor: mh indicates the presence of the mouse extracellular domain and human transmembrane domain; hm indicates the presence of the human extracellular domain and mouse transmembrane domain.

Consider `CC(C)(Oc1ccc(Cl)cc1)C(=O)O` [clofibric acid], for which the “effect on the mouse receptor” value is recorded as “no effect”.

These data come from US20150045610A1, “METHOD OF MODIFYING SPERMATOGENESIS, SPERMIOGENESIS AND/OR FERTILITY IN MAMMALS” (Monell Chemical Senses Center, priority 2012, published 2015).
